Like-named read-outs stand apart in the source and are kept apart here.

Test [1] relates to A8063 enzyme. In words: Substrate specificity: relative activity on various substrates. The format is biochemical, Streptomyces sp. A8063. How it is done: (§1) The above mixture (3.0 ml) was introduced into a quartz cell at 37° C., to which was immediately added and mixed the enzyme solution (50 μl), in a constant temperature (37° C.) cell-holder of a spectrophotometer. Then the mixture was incubated for exactly 5 minutes after 2 minutes of mixing with the enzyme solution, and the variation of absorption (optical density ΔA545) at 545 nm is measured.
(§2) The activity of the enzyme is calculated by the following equation: [formula] 2. Substrate specificity:
(§3) The relative activities (%) of enzyme L-glutamic acid oxidases produced by Streptomyces sp. A7700 (hereinafter designated as A7700 enzyme) and by Streptomyces sp. A8063 (hereinafter designated as A8063 enzyme), respectively, on various substrates as compared with L-glutamic acid, are measured.

Test [2] deals with A7700 enzyme. The test is described as above. The format is biochemical, Streptomyces sp. A7700. How it is done:
as §1, §2, §3

The subject of test [3] is A7700 enzyme. In words: Effect of surface active agents and other substances on enzyme activity. The format is biochemical, Streptomyces sp. A7700. The procedure:
as §1
(§4) The activity of the enzyme is calculated by the following equation: [formula] 2.

Test [4] relates to A8063 enzyme. The description is as above. Format: biochemical, Streptomyces sp. A8063. How it is done:
as §1, §4

Test [5] concerns A8063 enzyme. The experiment in a line: Effect of metal ions on enzyme activity. Format: biochemical, Streptomyces sp. A8063. The note with it: metalic salt 1.0 mM. The procedure: as §1, §2
(§5) The effect of metal ions is shown in Table 5, in which ions other than Cu^++ show no effect on the enzymes.

In test [6] the test system is A7700 enzyme. The experiment in a line: Effect of metal ions on enzyme activity. Format: biochemical, Streptomyces sp. A7700. The note with it: metalic salt 1.0 mM. The procedure: as §1, §2, §5
Test [7] deals with A8063 enzyme. As to conditions: read-out: Km value; A8063 enzyme against L-glutamic acid.
In test [8] the test system is A7700 enzyme. The note with it: read-out: Km value; A7700 enzyme against L-glutamic acid.

`N[C@H](CCC(=O)O)C(=O)O` [D-glutamic acid]: the “Relative activity (%) on substrate as compared with L-glutamic acid” value (from here on “Relative activity (%) on substrate”) in test [1] and in test [2] was 0% each time.
On to `Cc1cc2nc3c(=O)[nH]c(=O)nc-3n(C[C@H](O)[C@H](O)[C@H](O)COP(=O)(O)OP(=O)(O)OC[C@H]3O[C@@H](n4cnc5c(N)ncnc54)[C@H](O)[C@@H]3O)c2cc1C` [FAD], for which the “Relative activity (%)” value was found to be 100.7% in test [3] (A7700, additive 0.01 mM) and 100.7% in test [4] (A8063, additive 0.01 mM). Besides, the “Effect of additive on enzyme activity (in words)” value (shortened to “Effect of additive”) in test [3] (A7700 enzyme) and in test [4] (A8063 enzyme) was “not affected” each time.
As for `CCCCN` [butylamine], the “Relative activity (%) on substrate” value in test [1] and in test [2] was 0% in each case.
`Cc1cc2nc3c(=O)[nH]c(=O)nc-3n(C[C@H](O)[C@H](O)[C@H](O)COP(=O)(O)O)c2cc1C` [FMN]: the “Relative activity (%)” value in test [3] (A7700, additive 0.01 mM) turned out to be 88.9%; in test [4] (A8063, additive 0.01 mM), 97.1%. Further, the “Effect of additive” value in test [3] (A7700 enzyme) and in test [4] (A8063 enzyme) was “not affected” each time.
`N[C@@H](Cc1c[nH]cn1)C(=O)O` [L-histidine]: the “Relative activity (%) on substrate” value in test [1] and in test [2] was 0% in each case.
Turning to `N[C@@H](Cc1ccc(O)cc1)C(=O)O` [L-tyrosine], the “Relative activity (%) on substrate” value in test [1] and in test [2] was 0% in each case.
`CCCCCCCCCCCCCCCC[N+](C)(C)C` [CTACl]: the “Relative activity (%)” value in test [3] (A7700, additive 0.1%) was 98.6%; in test [4] (A8063, additive 0.1%), 94.2%.
The like results for `CCCCCCCCCCCCOS(=O)(=O)O` [SDS] were, in that order, 106.3% and 93.1%.
`[Ca+2].[Cl-].[Cl-]` [CaCl2]: the “Relative activity (%)” value in test [5] is 103.0%; in test [6], 98.8%.
In the case of `O=C(O)c1cc[c]([Hg][Cl])cc1` [PCMB], the “Relative activity (%)” value in test [3] (A7700, additive 0.002%) is 107.6%; in test [4] (A8063, additive 0.002%), 98.2%.
On to `C[C@H](CCC(=O)O)[C@H]1CC[C@H]2[C@@H]3[C@H](O)C[C@@H]4C[C@H](O)CC[C@]4(C)[C@H]3C[C@H](O)[C@]12C` [sodium cholate], for which the “Relative activity (%)” value in test [3] (A7700, additive 0.1%) is recorded as 104.2%; in test [4] (A8063, additive 0.1%) it was 100.0%.
On to `N[C@@H](CCC(=O)O)C(=O)O` [L-glutamic acid], for which the Km was around 1100 µM in test [7] and around 560 µM in test [8]. Besides, the “Activity of enzyme on substrate (in words)” value in test [1] and in test [2] was “specific activity” in each case. In addition, the “Relative activity (%) on substrate” value in test [1] and in test [2] was 100% in each case.
Regarding `[Cl][Fe]([Cl])[Cl]` [FeCl3], the results for the “Relative activity (%)” value in test [5] and in test [6] were 103.0% and 109.2%, respectively.
On to `CSCC[C@H](N)C(=O)O` [L-methionine], for which the “Relative activity (%) on substrate” value in test [1] and in test [2] was 0% throughout.
For the compound `[Cl-].[Cl-].[Zn+2]` [ZnCl2], the results for the “Relative activity (%)” value in test [5] and in test [6] were 110.7% and 106.1%, respectively.
Consider `NO` [hydroxylamine], for which the “Relative activity (%) on substrate” value in test [1] and in test [2] was 0% in each case.
Turning to `N=C(N)NCCC[C@H](N)C(=O)O` [L-arginine], the “Relative activity (%) on substrate” value in test [1] and in test [2] was 0% in each case.
Consider `NCCc1ccc(O)cc1` [tyramine], for which the “Relative activity (%) on substrate” value in test [1] and in test [2] was 0% throughout.
Regarding `[Cl][Ni][Cl]` [NiCl2], the “Relative activity (%)” value in test [5] was 102.3%; in test [6] it was 101.8%.
Consider `[Cl][Mn][Cl]` [MnCl2], for which the “Relative activity (%)” value in test [5] turned out to be 105.7%; in test [6], 108.6%.
Take `C[C@H](N)C(=O)O` [L-alanine]: the “Relative activity (%) on substrate” value in test [1] and in test [2] was 0% throughout.
As to `[Cl-].[Cl-].[Co+2]` [CoCl2], the “Relative activity (%)” value in test [5] came to 98.0%; in test [6] it was 99.4%.
For the compound `[Ba+2].[Cl-].[Cl-]` [BaCl2], the figures for the “Relative activity (%)” value in test [5] and in test [6] were 103.7% and 102.5%, respectively.
Turning to `O=C(O)CN(CCN(CC(=O)O)CC(=O)O)CC(=O)O` [EDTA], in test [3], the “Effect of additive” value is listed as “lack of effect” and the “Relative activity (%)” value turned out to be 93.8%. Further, in test [4], the “Effect of additive” value is “lack of effect” and the “Relative activity (%)” value amounted to 100.7%.
`NCCCC[C@H](N)C(=O)O` [L-lysine]: the “Relative activity (%) on substrate” value in test [1] and in test [2] was 0% throughout.
As for `NCc1ccccc1` [benzylamine], the “Relative activity (%) on substrate” value in test [1] and in test [2] was 0% throughout.
On to `[Cl-].[Cl-].[Mg+2]` [MgCl2], for which the entries for the “Relative activity (%)” value in test [5] and in test [6] were 103.4% and 102.5%, respectively.
Consider `CCN` [ethylamine], for which the “Relative activity (%) on substrate” value in test [1] and in test [2] was 0% throughout.
Regarding `CC(C)[C@H](N)C(=O)O` [L-valine], the “Relative activity (%) on substrate” value in test [1] and in test [2] was 0% in each case.
`CCCN` [propylamine]: the “Relative activity (%) on substrate” value in test [1] and in test [2] was 0% throughout.
For the compound `CN` [methylamine], the “Relative activity (%) on substrate” value in test [1] and in test [2] was 0% in each case.
As to `[N-]=[N+]=[N-].[Na+]` [NaN3], the “Relative activity (%)” value is on record as 101.4% in test [3] (A7700, additive 10 mM) and 102.6% in test [4] (A8063, additive 10 mM). Besides, the “Effect of additive” value in test [3] (A7700 enzyme) and in test [4] (A8063 enzyme) was “not inhibited” throughout.
As for `[Cl][Cu][Cl]` [CuCl2], the “Relative activity (%)” value in test [5] is listed as 62.1%; in test [6], 50.3%.
For the compound `C[C@@H](O)[C@H](N)C(=O)O` [L-threonine], the “Relative activity (%) on substrate” value in test [1] and in test [2] was 0% each time.
Regarding `N[C@@H](CO)C(=O)O` [L-serine], the “Relative activity (%) on substrate” value in test [1] and in test [2] was 0% each time.
Turning to `N[C@@H](Cc1ccccc1)C(=O)O` [L-phenylalanine], the “Relative activity (%) on substrate” value in test [1] and in test [2] was 0% throughout.
`CC[C@H](C)[C@H](N)C(=O)O` [L-isoleucine]: the “Relative activity (%) on substrate” value in test [1] and in test [2] was 0% throughout.

The record behind these values is patent US4605615A, “L-glutamic acid oxidase (H2 O2 -generating), its production and analytical method therefor” (priority 1982, dated 1986).
